Data published in US9045482B2, “Pyrido[4,3-B]indoles and methods of use” (Medivation Technologies, Inc., priority 2009, dated 2015).

Key:
[1] = molecular target: T1, human recombinant serotonin (5-Hydroxytryptamine) 5-HT2A receptor (Homo sapiens, UniProt P28223); assay: Serotonin 5-HT2A radioligand binding ([3H]Ketanserin)
T1 construct: expressed in transfected cells; host or cells: Chinese hamster ovary (CHO-K1) cells
Method: (1997), 68:1998] in a 50 mM Tris-HCl buffer, pH 7.4, was used. Compounds of the invention were incubated with 0.5 nM [^3H]Ketanserin for 60 min at 25° C. Non-specific binding was estimated in the presence of 1 μM Mianserin. Receptor proteins were filtered and washed, the filters were then counted to determine [^3H]Ketanserin specifically bound. Compounds were screened at 1 μM or lower, using 1% DMSO as vehicle. Biochemical assay results are presented as the percent inhibition of specific binding in Table 4.

[2] = molecular target: T2, human recombinant serotonin (5-Hydroxytryptamine) 5-HT6 receptor (Homo sapiens, UniProt P50406); assay: Serotonin 5-HT6 radioligand binding ([3H]LSD)
T2 construct: expressed in transfected cells; host or cells: human HeLa cells
T2 sequence (P50406 whole entry): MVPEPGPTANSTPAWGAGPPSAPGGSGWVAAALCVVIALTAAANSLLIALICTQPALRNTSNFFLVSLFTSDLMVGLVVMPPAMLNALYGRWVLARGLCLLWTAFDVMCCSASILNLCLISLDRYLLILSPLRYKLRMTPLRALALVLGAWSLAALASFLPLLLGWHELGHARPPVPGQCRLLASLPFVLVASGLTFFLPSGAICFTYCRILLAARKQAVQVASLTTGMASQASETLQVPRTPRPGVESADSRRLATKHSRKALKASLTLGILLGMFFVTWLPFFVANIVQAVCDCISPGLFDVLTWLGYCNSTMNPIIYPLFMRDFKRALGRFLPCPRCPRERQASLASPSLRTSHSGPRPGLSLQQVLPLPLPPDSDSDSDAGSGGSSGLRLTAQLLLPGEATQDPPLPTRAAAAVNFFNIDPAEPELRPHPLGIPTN
Method: (§1) Compounds of the invention were incubated with 1.5 nM [3H]Lysergic acid diethylamide (LSD) for 120 min at 37° C. […] Receptor proteins were filtered and washed, the filters were then counted to determine [3H]LSD specifically bound. Compounds were screened at 1 μM or lower, using 1% DMSO as vehicle. Biochemical assay results are presented as the percent inhibition of specific binding in Table 4.

[3] = molecular target: T3, human recombinant adrenergic α2B receptor (Homo sapiens, UniProt P18089); assay: Adrenergic α2B radioligand binding ([3H]Rauwolscine)
T3 construct: expressed in transfected cells; host or cells: Chinese hamster ovary (CHO-K1) cells
T3 sequence (P18089 1-450): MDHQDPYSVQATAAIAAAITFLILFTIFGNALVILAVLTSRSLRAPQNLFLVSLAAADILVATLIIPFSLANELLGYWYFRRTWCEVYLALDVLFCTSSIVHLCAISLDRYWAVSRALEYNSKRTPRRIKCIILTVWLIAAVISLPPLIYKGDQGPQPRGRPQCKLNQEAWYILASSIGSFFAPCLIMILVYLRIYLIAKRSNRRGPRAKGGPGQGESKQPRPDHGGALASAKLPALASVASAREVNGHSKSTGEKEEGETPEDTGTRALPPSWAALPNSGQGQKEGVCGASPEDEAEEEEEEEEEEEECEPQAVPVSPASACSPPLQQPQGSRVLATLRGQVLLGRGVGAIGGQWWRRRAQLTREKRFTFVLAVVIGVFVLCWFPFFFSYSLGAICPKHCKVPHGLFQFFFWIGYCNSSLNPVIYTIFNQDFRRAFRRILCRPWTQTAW
Method: To evaluate in radioligand binding assays the activity of compounds of the invention, human recombinant adrenergic α2B receptor expressed in Chinese hamster ovary (CHO-K1) cells [Uhlen, S. et al., Eur. J. Pharmacol. (1998), 343(1):93] in a modified Tris-HCl buffer (50 mM Tris-HCl, pH 7.4, 12.5 mM MgCl2, 1 mM EDTA, 0.2% BSA) was used. Compounds of the invention were incubated with 2.5 nM [^3H]Rauwolscine for 60 min at 25° C. Non-specific binding was estimated in the presence of 10 μM Prozosin. Receptor proteins were filtered and washed, the filters were then counted to determine [^3H]Rauwolscine specifically bound. Compounds were screened at 1 μM or lower, using 1% DMSO as vehicle. Compounds of the invention were tested in this biochemical assay. Biochemical assay results for representative compounds were presented as the percent inhibition of specific binding in Table 3.

[4] = molecular target: human recombinant serotonin (5-Hydroxytryptamine) 5-HT7 receptor (Homo sapiens, UniProt P34969); assay: Serotonin 5-HT7 radioligand binding ([3H]LSD); details: 0.1 μM ligand concentration
Sequence of human recombinant serotonin (5-Hydroxytryptamine) 5-HT7 receptor (P34969 whole entry): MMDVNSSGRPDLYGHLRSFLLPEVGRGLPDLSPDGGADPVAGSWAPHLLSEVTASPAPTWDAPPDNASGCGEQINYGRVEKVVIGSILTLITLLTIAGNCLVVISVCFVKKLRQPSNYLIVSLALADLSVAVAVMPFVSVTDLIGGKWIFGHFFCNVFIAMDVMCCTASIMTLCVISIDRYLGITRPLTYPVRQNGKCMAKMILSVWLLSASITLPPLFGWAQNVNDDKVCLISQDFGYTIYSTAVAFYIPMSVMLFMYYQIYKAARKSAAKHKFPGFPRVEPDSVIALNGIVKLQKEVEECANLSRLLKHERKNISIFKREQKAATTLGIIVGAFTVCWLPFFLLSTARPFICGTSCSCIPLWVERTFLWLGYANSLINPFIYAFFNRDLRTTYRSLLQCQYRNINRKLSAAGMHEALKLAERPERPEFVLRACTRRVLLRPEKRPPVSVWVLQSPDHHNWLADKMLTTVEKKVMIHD
Method: as §1, with “of” for “of the”, “5.5” for “1.5”, “[^3H]Lysergic” for “[3H]Lysergic”, “2 h” for “120 min”, “25°” for “37°”, “[^3H]LSD” for “[3H]LSD”

[5] = molecular target: T4, rat adrenergic α1A receptor (Rattus norvegicus, UniProt P43140); assay: Adrenergic α1A radioligand binding ([3H]Prozosin); design: species or system Wistar Rat; details: 0.1 μM ligand conc.
T4 construct: rat adrenergic α1A receptor obtained from Wistar Rat submaxillary glands; from tissue; host or cells: Wistar Rat submaxillary glands
T4 sequence (P43140 1-466): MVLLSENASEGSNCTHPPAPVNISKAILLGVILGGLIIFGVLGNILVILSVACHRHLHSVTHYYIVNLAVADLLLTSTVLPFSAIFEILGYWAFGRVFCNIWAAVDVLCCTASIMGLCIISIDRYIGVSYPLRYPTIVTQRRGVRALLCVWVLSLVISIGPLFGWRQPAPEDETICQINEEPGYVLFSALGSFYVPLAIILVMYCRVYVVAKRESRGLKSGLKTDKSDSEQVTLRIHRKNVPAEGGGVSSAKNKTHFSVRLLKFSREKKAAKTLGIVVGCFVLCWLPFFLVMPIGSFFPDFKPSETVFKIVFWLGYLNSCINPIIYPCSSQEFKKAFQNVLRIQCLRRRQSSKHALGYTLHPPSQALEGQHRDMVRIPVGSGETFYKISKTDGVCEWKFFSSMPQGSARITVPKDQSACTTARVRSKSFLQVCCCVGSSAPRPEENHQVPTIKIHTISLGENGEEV
Method: To evaluate in radioligand binding assays the activity of compounds of the invention, rat adrenergic α1A receptor obtained from Wistar Rat submaxillary glands [Michel, A. D. et al., Br. J. Pharmacol. (1989), 98:883] in a modified Tris-HCl buffer (50 mM Tris-HCl buffer, pH 7.4, 0.5 mM EDTA) was used. Compounds of the invention were incubated with 0.25 nM [^3H]Prozosin for 60 min at 25° C. Non-specific binding was estimated in the presence of 10 μM phentolamine. Receptor proteins were filtered and washed, the filters were then counted to determine [^3H]Prozosin specifically bound. Compounds of the invention were screened at 1 μM or lower, using 1% DMSO as vehicle. Compounds of the invention were tested in this biochemical assay. Biochemical assay results for representative compounds were presented as the percent inhibition of specific binding in Table 3.

T1 sequence (P28223 whole entry): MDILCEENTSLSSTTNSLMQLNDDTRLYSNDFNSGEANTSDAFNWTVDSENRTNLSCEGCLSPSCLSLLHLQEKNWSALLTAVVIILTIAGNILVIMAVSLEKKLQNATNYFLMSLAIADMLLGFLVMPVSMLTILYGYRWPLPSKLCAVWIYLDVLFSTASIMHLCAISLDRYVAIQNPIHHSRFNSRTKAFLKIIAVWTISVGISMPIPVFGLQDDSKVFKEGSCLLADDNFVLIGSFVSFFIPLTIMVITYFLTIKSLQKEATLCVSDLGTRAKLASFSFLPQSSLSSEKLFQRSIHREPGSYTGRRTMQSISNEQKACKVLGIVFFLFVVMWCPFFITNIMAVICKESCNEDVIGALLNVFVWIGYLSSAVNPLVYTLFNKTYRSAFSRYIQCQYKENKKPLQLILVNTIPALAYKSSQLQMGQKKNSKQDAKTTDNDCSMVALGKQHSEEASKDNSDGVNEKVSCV

| SMILES | Percent Inhibition of ligand binding Serotonin 5-HT2A ([1]; 1 μM ligand concentration) [%] | Percent Inhibition of ligand binding Serotonin 5-HT6 ([2]; 1 μM ligand concentration) [%] | Percent Inhibition of ligand binding Adrenergic α2B ([3]; 1 μM ligand conc.) [%] | Percent Inhibition of ligand binding Serotonin 5-HT2A ([1]; 0.1 μM ligand concentration) [%] | Percent Inhibition of ligand binding Serotonin 5-HT7 [4] [%] | Percent Inhibition of ligand binding Serotonin 5-HT6 ([2]; 0.1 μM ligand concentration) [%] | Percent Inhibition of ligand binding Adrenergic α1A [5] [%] | Percent Inhibition of ligand binding Adrenergic α2B ([3]; 0.1 μM ligand conc.) [%] |
| --- | --- | --- | --- | --- | --- | --- | --- | --- |
| Fc1ccc(CCn2c3c(c4cc(Cl)ccc42)C2CCCN2CC3)cc1 (stereo not drawn) [Compound 1, 7-(4-fluorophenethyl)-10-chloro-2,3,5,6,7,11c-hexahydro-1H-indolizino[7,8-b]indole] | 11 | 19 | 55 |  |  |  |  |  |
| Fc1ccc(CCn2c3c(c4cc(Cl)ccc42)CN2CCCC2C3)cc1 (stereo not drawn) [Compound 2, 10-(4-fluorophenethyl)-7-chloro-2,3,5,10,11,11a-hexahydro-1H-indolizino[7,6-b]indole] | 41 | 19 | 51 |  |  |  |  |  |
| C/C(=C\n1c2c(c3cc(C)ccc31)C1CCCN1CC2)c1ccc(C)nc1 (stereo not drawn) [Compound 32, (E)-10-methyl-7-(2-(6-methylpyridin-3-yl)prop-1-enyl)-2,3,5,6,7,11c-hexahydro-1H-indolizino[7,8-b]indole] |  |  |  | 50 | 61 | 25 | 55 |  |
| Cc1cnc2c(c1)c1c(n2CCc2ccc(C)nc2)CCN2CCCC12 (stereo not drawn) [Compound 33, 10-methyl-7-(2-(6-methylpyridin-3-yl)ethyl)-2,3,5,6,7,1c-hexahydro-1H-pyrido[3′,2′:4,5]pyrrolo[2,3-g]indolizine] |  |  |  | 29 | 44 | 20 | 26 |  |
| Cc1ccc(CCn2c3c(c4cccnc42)C2CCCN2CC3)cn1 (stereo not drawn) [Compound 34, 7-(2-(6-methylpyridin-3-yl)ethyl)-2,3,5,6,7,1c-hexahydro-1H-pyrido[3′,2′:4,5]pyrrolo[2,3-g]indolizine] |  |  |  | 15 | 18 | 5 | −9 |  |
| Cc1ccc(CCn2c3c(c4cccnc42)CN2CCCC2C3)cn1 (stereo not drawn) [Compound 35, 11-(2-(6-methylpyridin-3-yl)ethyl)-7,8,9,9a,10,11-hexahydro-5H-pyrido[3′,2′:4,5]pyrrolo[3,2-f]indolizine] |  |  |  | 31 | 6 | −3 | −2 |  |
| Cc1cnc2c(c1)c1c(n2CCc2ccc(C)nc2)CC2CCCN2C1 (stereo not drawn) [Compound 36, 3-methyl-11-(2-(6-methylpyridin-3-yl)ethyl)-7,8,9,9a,10,11-hexahydro-5H-pyrido[3′,2′:4,5]pyrrolo[3,2-f]indolizine] |  |  |  | 35 | 23 | 34 | 26 |  |
| O=C(Cn1c2c(c3cccnc31)CN1CCCC1C2)N1CCCCC1 (stereo not drawn) [Compound 37, 1-(piperidin-1-yl)-2-(8,9,9a,10-tetrahydro-5H-pyrido[3′,2′:4,5]pyrrolo[3,2-f]indolizin-11(7H)-yl)ethanone] |  |  |  | 33 | 3 | −9 | −6 | 40 |
| O=C(Cn1c2c(c3cccnc31)C1CCCN1CC2)N1CCCCC1 (stereo not drawn) [Compound 38, 1-(piperidin-1-yl)-2-(2,3,5,6-tetrahydro-1H-pyrido[3′,2′:4,5]pyrrolo[2,3-g]indolizin-7(11cH)-yl)ethanone] |  |  |  | 19 | 23 | −8 | −6 | 30 |
